Measurements reported in patent publication US20240016807A1, “COMBINATION THERAPY FOR THE TREATMENT OF A LIVER DISEASE” (INVENTIVA, priority 2020, published 2024).

Legend:
Assay type in all cases: in vivo, C57BL6/J mice
[1] = test system: HFCC+CDX diet model (liver lipids); test: Liver lipids assay in HFCC/CDX diet mouse model; settings: 2 weeks treatment QD per os; lanifibranor 10 mg/kg, firsocostat 30 then 15 mg/kg
Description: (§1) It has been reported (Duparc T et al., Am J Physiol Gasterointest Liver Physiol, 2019, Vol. 317, n° 4, pages G508-G517) that mice fed with a high fat/high cholesterol/high cholic acid diet with 2% 2-hydroxypropyl beta-cyclodextrin in drinking water for 3 weeks rapidly develops liver complications such as steatosis, inflammation and fibrosis with concomitant increase in plasma ALT/AST levels. The benefit of a combination therapy comprising lanifibranor and firsocostat was assessed in this model. C57BL6/J mice were fed for 3 weeks with a 60% high fat/1.25% cholesterol/0.5% cholic acid diet with 2% 2-hydroxypropyl beta-cyclodextrin in drinking water (HFCC/CDX diet). After 1 week of diet, blood was collected (˜150 μL/ethylenediaminetetraacetic acid (EDTA)) in non-fasting conditions and plasma ALT and AST levels were measured. Mice were then randomized into 4 homogenous treatment groups (n=10 mice per group) according to their 1) ALT levels, 2) AST levels and 3) body weight. The four groups received then their treatment for the remaining 2 weeks on top of the HFCC/CDX diet as follows: • Group 1: vehicle 1+vehicle 2; • Group 2: lanifibranor+vehicle 2; • Group 3: vehicle 1+firsocostat; • Group 4: lanifibranor+firsocostat. All treatments were given QD per os. Vehicle 1 stands for lanifibranor's vehicle (i.e. methyl cellulose/poloxamer), vehicle 2 stands for firsocostat's vehicle (i.e. Tween®80/methylcellulose). Lanifibranor was given at 10 mg/kg for 2 weeks and firsocostat was given at 30 mg/kg for the first 6 days and then at 15 mg/kg for the last 8 days: due to the high loss of weight observed in the combination group, the dose of firsocostat was adapted to limit toxicity. At the end of the treatment period all the mice were weighted and 4-hour fasted prior to blood collection (maximal volume/EDTA). Plasma was isolated and stored at −80° C. Plasma leftover was used for evaluation of plasmatic triglycerides, cholesterols and free fatty acid. After blood collection, mice were sacrificed by cervical dislocation under isoflurane anaesthesia and exsanguinated with sterile saline. The liver was collected and weighted then liver samples were dissected for histology analysis (H&E, Sirius Red staining, % Sirius Red labelling and NAFLD Activity Score (NAS)), liver lipids assay, hepatic gene expression of IL-1b, MCP-1 for inflammation, Col1 alpha1 and TGF-beta for fibrosis were analysed by qPCR.

[2] = Body weight follow-up in HFCC/CDX diet mouse model; settings: for body weight: during treatment, lanifibranor 10 mg/kg QD per os, firsocostat 30 mg/kg QD per os in first week
Description: It has been reported (Duparc T et al., Am J Physiol Gasterointest Liver Physiol, 2019, Vol. 317, n° 4, pages G508-G517) that mice fed with a high fat/high cholesterol/high cholic acid diet with 2% 2-hydroxypropyl beta-cyclodextrin in drinking water for 3 weeks rapidly develops liver complications such as steatosis, inflammation and fibrosis with concomitant increase in plasma ALT/AST levels. The benefit of a combination therapy comprising lanifibranor and firsocostat was assessed in this model.
(§2) C57BL6/J mice were fed for 3 weeks with a 60% high fat/1.25% cholesterol/0.5% cholic acid diet with 2% 2-hydroxypropyl beta-cyclodextrin in drinking water (HFCC/CDX diet). After 1 week of diet, blood was collected (˜150 μL/ethylenediaminetetraacetic acid (EDTA)) in non-fasting conditions and plasma ALT and AST levels were measured. Mice were then randomized into 4 homogenous treatment groups (n=10 mice per group) according to their 1) ALT levels, 2) AST levels and 3) body weight. The four groups received then their treatment for the remaining 2 weeks on top of the HFCC/CDX diet as follows: • Group 1: vehicle 1+vehicle 2; • Group 2: lanifibranor+vehicle 2; • Group 3: vehicle 1+firsocostat; • Group 4: lanifibranor+firsocostat.
All treatments were given QD per os. Vehicle 1 stands for lanifibranor's vehicle (i.e. methyl cellulose/poloxamer), vehicle 2 stands for firsocostat's vehicle (i.e.
Tween®80/methylcellulose). Lanifibranor was given at 10 mg/kg for 2 weeks and firsocostat was given at 30 mg/kg for the first 6 days and then at 15 mg/kg for the last 8 days: due to the high loss of weight observed in the combination group, the dose of firsocostat was adapted to limit toxicity. At the end of the treatment period all the mice were weighted and 4-hour fasted prior to blood collection (maximal volume/EDTA). Plasma was isolated and stored at −80° C. Plasma leftover was used for evaluation of plasmatic triglycerides, cholesterols and free fatty acid. After blood collection, mice were sacrificed by cervical dislocation under isoflurane anaesthesia and exsanguinated with sterile saline.

[3] = test system: HFCC+CDX diet model (liver histology); test: Liver histology (steatosis, inflammation, fibrosis scoring, % Sirius Red) in HFCC/CDX diet mouse model; settings: for histological fibrosis score: compared to the vehicle group (score of 1); for histological steatosis score / histological inflammation score: 3 being the maximum; for histological steatosis score: all vehicle animals scored 3; for histological inflammation score: all vehicle mice scored 3; for surface of fibrosis (collagen deposition within the liver): vehicle 0.14%; for total scoring including steatosis, inflammation and fibrosis scoring: vehicle 6.9
Description: as §1

[4] = test system: epididymal white adipose tissue (EWAT); test: Epididymal white adipose tissue weight in HFCC/CDX diet mouse model; settings: 2 weeks treatment QD per os; lanifibranor 10 mg/kg, firsocostat 30 then 15 mg/kg
Description: as §2, with “It has been reported (Duparc T et al., Am J Physiol Gasterointest Liver Physiol, 2019, Vol. 317, n° 4, pages G508-G517) that mice fed with a high fat/high cholesterol/high cholic acid diet with 2% 2-hydroxypropyl beta-cyclodextrin in drinking water for 3 weeks rapidly develops liver complications such as steatosis, inflammation and fibrosis with concomitant increase in plasma ALT/AST levels. The benefit of a combination therapy comprising lanifibranor and firsocostat was assessed in this model. C57BL6/J” for “C57BL6/J”, “lanifibranor+firsocostat. All treatments were given QD per os. […]” for “lanifibranor+firsocostat.”

[5] = test system: hepatic gene expression of IL-1b, MCP-1, Col1 alpha1 and TGF-beta; test: Hepatic gene expression by qPCR (inflammation and fibrosis genes) in HFCC/CDX diet mouse model; settings: liver, vs vehicle, 2 weeks treatment
Description: as §1

SMILES	hepatic fatty acids levels, change vs vehicle [1]	hepatic total cholesterol, change vs vehicle [1] [%]	hepatic triglycerides, change vs vehicle [1] [%]	body weight [2]	histological fibrosis score [3]	histological steatosis score [3]	histological inflammation score [3]	surface of fibrosis (collagen deposition within the liver) [3] [%]	total scoring including steatosis, inflammation and fibrosis scoring [3]	epididymal white adipose tissue (EWAT) weight [4]	hepatic IL-1beta expression [5]	hepatic MCP-1 expression [5]	hepatic TGF-beta1 expression [5]	hepatic collagen 1 alpha 1 expression [5]	body weight after firsocostat dose reduction ([2]; after firsocostat dose reduced from 30 mg/kg to 15 mg/kg)
O=C(O)CCCc1cc2cc(Cl)ccc2n1S(=O)(=O)c1ccc2ncsc2c1 [lanifibranor, 5-Chloro-1-[(6-benzothiazolyl)sulfonyl]-1H-indole-2-butanoic acid]	no effect	−18	−7	minor body weight loss that was not significant	no effect	score of 2 for 8 animals and of 1 for 2 animals	2 animals had a score of 3, 6 animals had a score of 2 and 2 animals had a score of 1	0.08	4.7	neither lanifibranor alone, firsocostat alone nor the combination of lanifibranor and firsocostat had an effect	statistically decreased	statistically decreased	statistically decreased	statistically decreased	
COc1ccccc1[C@H](Cn1c(=O)n(C(C)(C)C(=O)O)c(=O)c2c(C)c(-c3ncco3)sc21)OC1CCOCC1 [firsocostat]	−16%	−9	−14	induced a body weight loss in the first week of treatment	no effect	score of 2 in 7 animals but had no effect in 2 animals	1 animals had a score of 3, 7 animals had a score of 2 and 1 animal had a score of 1	0.10	5.1	neither lanifibranor alone, firsocostat alone nor the combination of lanifibranor and firsocostat had an effect	decreased both IL-1beta and MCP-1 expressions but only the decrease in MCP-1 expression reached significance	decreased both IL-1beta and MCP-1 expressions but only the decrease in MCP-1 expression reached significance	statistically decreased	statistically decreased	normalized their body weight
